In general, EC50 refers to the concentration at which the effect is half-maximal. One may read the IC50 as the concentration at which inhibition is half-maximal.

This note sets out measurements from patent US11339185B2, “Cyclic dinucleotides as anticancer agents” (Bristol-Myers Squibb Company, priority 2018, dated 2022).

Structures are written as SMILES. Where two headings read alike, the source gives them in different places.

Assay [1] has as its system THP1-Dual cells, IRF pathway (IRF3). Put plainly: STING THP1 Reporter Assay, IRF pathway (secreted Lucia luciferase, QUANTI-Luc). Particulars: 10% human plasma, luciferase readout, 100% activation = 100 μM cGAMP, read-out: THP1 Reporter Assays EC50 (μM) IRF3. It is filed as cell-based. The method, boiled down: (§1)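 THP1-Dual cells (15,000/well) in RPMI with 10% human plasma exposed to serially diluted compounds (top final 100 μM) for 20 h at 37 °C. IRF activity read as secreted Lucia luciferase luminescence (QUANTI-Luc), NF-κB as SEAP OD620 (QUANTI-Blue, 2 h); normalised to 100 μM cGAMP (100%) and DMSO baseline.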
(In general: In a reporter assay the amount or activity of a reporter protein is the signal.)

Assay [2] has as its system THP1-Dual cells, NF-κB pathway. Nature of the assay: STING THP1 Reporter Assay, NF-κB pathway (SEAP, QUANTI-Blue). It is filed as cell-based. As to conditions: 10% human plasma, SEAP readout (OD620), 100% activation = 100 μM cGAMP, read-out: THP1 Reporter Assays EC50 (μM) NFkB. The method, boiled down: as §1
The target of assay [3] is T1, STING WT: His-TVMV-S-hSTING(155-341)-H232R (Homo sapiens, UniProt Q86WV6, H232R).
T1 construct: STING WT: His-TVMV-S-hSTING(155-341)-H232R
T1 sequence (Q86WV6 with tags, fused parts or gaps H232R): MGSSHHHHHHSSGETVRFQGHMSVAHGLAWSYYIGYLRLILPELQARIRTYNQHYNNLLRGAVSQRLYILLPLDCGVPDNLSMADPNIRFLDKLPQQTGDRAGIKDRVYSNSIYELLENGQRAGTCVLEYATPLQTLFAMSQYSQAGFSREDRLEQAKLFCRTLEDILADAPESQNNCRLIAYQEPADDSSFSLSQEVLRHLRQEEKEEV
Put plainly: STING HTRF binding assay (time resolved FRET competition), STING WT. As to conditions: 20 nM His-tagged STING WT cytoplasmic domain, 200 nM fluorescein-labeled cGAMP analog probe, one hour; read-out: HTRF Binding Assays IC50 (μM) WT. The method, boiled down: (§2)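 Test compounds competed with a fluorescein-labeled cGAMP analog (200 nM WT, 40 nM AQ) for 20 nM His-tagged STING cytoplasmic domain over one hour in PBS containing 0.005% Tween-20 and 0.1% BSA. Detection used 2.5 nM Tb-anti-His antibody.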
A general note: Time-resolved FRET reads energy transfer from a long-lived donor to a nearby acceptor.

In assay [4] the target is T2, STING AQ: His-TVMV-S-hSTING(155-341)-G230A-R293Q (Homo sapiens, UniProt Q86WV6, G230A/H232R/R293Q).
T2 construct: STING AQ: His-TVMV-S-hSTING(155-341)-G230A-R293Q
T2 sequence (Q86WV6 with tags, fused parts or gaps G230A/H232R/R293Q): as the sequence (Q86WV6 with tags, fused parts or gaps H232R) above, with G99A, R162Q counted along it
Nature of the assay: STING HTRF binding assay (time resolved FRET competition), STING AQ. Particulars: 20 nM His-tagged STING AQ cytoplasmic domain, 40 nM fluorescein-labeled cGAMP analog probe, one hour; read-out: HTRF Binding Assays IC50 (μM) AQ. The method, boiled down: as §2

Consider `O=P1(S)OC[C@@H]2[C@@H](COP(=O)(S)O[C@H]3[C@@H](F)[C@H](n4cnc5c4ncn4ccnc54)O[C@@H]3CO1)C[C@H]2n1cnc2c(Cl)ncnc21` (single isomer, unassigned) [Example 18-1], for which the EC50 in assay [1] (Homo sapiens, THP1-Dual, 20 h) is greater than 100 µM; in assay [2] (Homo sapiens, THP1-Dual, 20 h) it was greater than 100 µM. The results for the IC50 in assay [3] and in assay [4] were greater than 100 µM and 26.4 µM, respectively.

Regarding `NC(=O)c1cc([C@@H]2O[C@@H]3COP(=O)(S)OC[C@@H]4[C@@H](COP(=O)(S)O[C@@H]2[C@@H]3O)C[C@H]4n2cnc3c(N)ncnc32)ccn1` (single isomer, unassigned) [Example 20-4], the EC50 in assay [1] (20 hours) and in assay [2] (20 hours) was greater than 100 µM in each case. The IC50 in assay [3] is greater than 100 µM; in assay [4], 35.7 µM.

Consider `Nc1ncnc2c1ncn2[C@@H]1O[C@@H]2COP(=O)(S)OC[C@@H]3[C@@H](COP(=O)(S)O[C@H]2[C@H]1F)C[C@H]3n1cnc2c(=O)[nH]cnc21` (single isomer, unassigned) [Example 22-4], for which the figures for the EC50 in assay [1] (20 hours) and in assay [2] (20 hours) were 13 µM and 91.7 µM, respectively. The IC50 in assay [3] is 0.12 µM; in assay [4], 0.01 µM.

As for `O=P1(S)OC[C@@H]2[C@@H](COP(=O)(S)O[C@H]3[C@@H](F)[C@H](n4cnc5c4ncn4ccnc54)O[C@@H]3CO1)C[C@H]2n1cnc2c(Cl)ncnc21` (single isomer, unassigned) [Example 18-3], the EC50 in assay [1] (20 hours) and in assay [2] (20 hours) was greater than 100 µM each time. For the same molecule, the IC50 in assay [3] is greater than 100 µM; in assay [4] it was 2.81 µM.

`Nc1ncnc2c1ncn2[C@@H]1O[C@@H]2COP(=O)(S)OC[C@@H]3[C@@H](COP(=O)(S)O[C@H]2[C@H]1F)C[C@H]3n1cnc2c1ncn1ccnc21` (single isomer, unassigned) [Example 3-2]: the EC50 in assay [1] (20 hours) is 26.6 µM; in assay [2] (20 hours), 42.6 µM. For the same molecule, the IC50 in assay [3] worked out at 1.49 µM; in assay [4] it was 0.03 µM.

For the molecule `Nc1ncnc2c1ncn2[C@@H]1O[C@@H]2COP(=O)(S)OC[C@@H]3[C@@H](COP(=O)(S)O[C@H]2[C@H]1F)C[C@H]3n1cnc2c(=O)[nH]cnc21` (single isomer, unassigned) [Example 22-1], the EC50 in assay [1] (20 hours) was greater than 100 µM; in assay [2] (Homo sapiens, THP1-Dual, 20 h), greater than 100 µM. Besides, the IC50 in assay [3] came out at 5.68 µM; in assay [4] it was 0.1 µM.

With `NC(=O)c1cc([C@@H]2C[C@@H]3COP(=O)(S)O[C@H]4[C@@H](F)[C@H](n5cnc6c(N)ncnc65)O[C@@H]4COP(=O)(S)OC[C@H]32)ccn1` (single isomer, unassigned) [Example 9], the EC50 in assay [1] (20 hours) worked out at 18.4 µM; in assay [2] (20 hours), 23.5 µM. Also, the figures for the IC50 in assay [3] and in assay [4] were 1.41 µM and 0.02 µM, respectively.
